Measurements from patent publication US20220281846A1, “COMPOUNDS AND COMPOSITIONS FOR THE TREATMENT OF RESPIRATORY DISEASES” (THE UNIVERSITY OF MELBOURNE, priority 2018, published 2022).
Like-named read-outs stand apart in the source and are kept apart here.

Tests used:
[1] = system: interleukin-1α (IL1α)-mediated cytokine production by the lung adenocarcinoma cell line A549; test: Cellular assay (A549) against IL1α-mediated cytokine production; type: cell-based, human; details: serum starved A549 cells, compound 30 min prior to IL-1α (1 ng/ml) for 24 h, ELISA
Experimental: Cellular Assay (A549 Human Lung Adenocarcinoma Cells) Assessing Effect of ZH3-138, ZH3-126 and PF670462 Against IL1α-Mediated Cytokine Production
The anti-inflammatory potential of selected compounds was examined by establishing the effects on interleukin-1α (IL1α)-mediated cytokine production by the lung adenocarcinoma cell line A549. Serum starved A549 cells were treated with various concentrations of the relevant CK1δ inhibitor (PF670462, ZH3-126 and ZH3-138) 30 min prior to IL-1α (1 ng/ml) for 24 h. Supernatant was collected and concentration of IL-6, IL-8 and GM-CSF was detected by ELISA. Data are presented as mean±SEM across three replicates in FIG. 7 (A: IL-6; B: IL-8 and C: GM-CSF).

[2] = system: TGF-β-induced IL-11 in primary human parenchymal fibroblast cells (pFbs); test: Human parenchymal fibroblast cell assay, TGF-β-induced IL-11 (ELISA); type: cell-based; details: compounds 0.1-10 μM 30 min prior to TGF-β1, 16-24 hours, 4.00* is assigned to compounds that failed to cause 50% or more inhibition at 10 µM, read-out: pIC50 IL-11 suppression (converted)
Experimental: Human Parenchymal Fibroblast Cell Assay
Primary human parenchymal fibroblast cells (pFbs) were cultured from parenchyma of lung resection specimens and from non-transplanted lungs of donors without chronic respiratory disease. pFbs were passaged in Dulbecco's Modified Eagle's Media (DMEM) containing 10% (v/v) heat-inactivated fetal calf serum (FCS), 15 mM HEPES, 0.2% (v/v) sodium bicarbonate, 2 mM L-glutamine, 1% (v/v) non-essential amino acids, 1% (v/v) sodium pyruvate, 2.5 μg/mL amphotericin, 5 IU/mL penicillin and 50 μg/mL streptomycin. In some experiments the human lung fibroblast cell line, MRC5 (sourced from ATTC) was used as indicated. The MRC5 line was maintained under the same conditions as described for the pFb.
Prior to experimentation, pFb were incubated in serum-free DMEM containing 0.25% bovine serum albumin (BSA) and insulin-transferrin-selenium-containing supplement (Monomed A; CSL, Parkville, Melbourne, Australia). The cells were incubated with small molecular CK1δ inhibitors (0.1-10 μM) for 30 min prior to […] TGF-β1 (R&D Systems, Minneapolis, Minn.) and the incubation continued for 16-24 hours prior to harvest of supernatant for detection of immunoreactive IL-11. Stock solutions were made as 10 mM in 100% DMSO and diluted to the required concentration in medium containing 0.1% DMSO (final concentration).
Supernatants were collected for measurement of IL-11 (R&D DuoSet, DY218) by ELISA following the manufacturers' instructions. Generally, capture antibodies were initially diluted to the recommended concentrations using PBS buffer, and then used to coat the wells of 96-well microplates (Greiner, #655061) by adding 50 μL/well and incubated overnight at room temperature. Next day, solutions were discarded and wells were washed 3 times with wash buffer (PBS containing 0.1% (v/v) Tween-20) prior to the addition of 200 μL of blocking solution (PBS containing 1% (v/v) BSA) for 1 hour to block non-specific sites. Plates were then washed 3 times with wash buffer and 50 μL of samples or standards were then added to wells and incubated for 2 hours at room temperature. After the incubation, plates were washed 3 times with wash buffer and 50 μL of detection antibodies were added to wells and incubated for 2 hours at room temperature. Plates were then washed 3 times before adding streptavidin-conjugated horseradish peroxidase (at the recommended concentrations) for 45 min. Plates were then washed 5 times with wash buffer and 100 μL TMB substrate solution (equal parts A and B, BD Biosciences) was added to each well until sufficient signals emerged. The reactions were inactivated by adding 100 μL sulphuric acid (2M H2SO4). The absorbance was measured at 450 nm using the Multiskan Ascent® plate reader. The absorbance of the cytokine standards was fitted to a logistic equation, allowing the concentrations of cytokine in samples to be determined.
PIC50 values (the negative log of the concentration suppressing IL-11 level by 50%) for inhibition of TGF-β-induced IL-11 were interpolated from the linear regression of log concentration small molecule versus IL-11 level (Table 4 and FIG. 2).

ERBB4/HER4 = molecular target: T1, ERBB4/HER4 (Homo sapiens, UniProt Q15303); test: Kinase inhibition assay (HotSpot), ERBB4/HER4; type: biochemical; details: 10 μM ATP, 10-dose IC50 mode; read-out: Compound IC50 (M) ERBB4/HER4
T1 construct: purchased Reaction Biology Corp
T1 sequence (Q15303 26-1308): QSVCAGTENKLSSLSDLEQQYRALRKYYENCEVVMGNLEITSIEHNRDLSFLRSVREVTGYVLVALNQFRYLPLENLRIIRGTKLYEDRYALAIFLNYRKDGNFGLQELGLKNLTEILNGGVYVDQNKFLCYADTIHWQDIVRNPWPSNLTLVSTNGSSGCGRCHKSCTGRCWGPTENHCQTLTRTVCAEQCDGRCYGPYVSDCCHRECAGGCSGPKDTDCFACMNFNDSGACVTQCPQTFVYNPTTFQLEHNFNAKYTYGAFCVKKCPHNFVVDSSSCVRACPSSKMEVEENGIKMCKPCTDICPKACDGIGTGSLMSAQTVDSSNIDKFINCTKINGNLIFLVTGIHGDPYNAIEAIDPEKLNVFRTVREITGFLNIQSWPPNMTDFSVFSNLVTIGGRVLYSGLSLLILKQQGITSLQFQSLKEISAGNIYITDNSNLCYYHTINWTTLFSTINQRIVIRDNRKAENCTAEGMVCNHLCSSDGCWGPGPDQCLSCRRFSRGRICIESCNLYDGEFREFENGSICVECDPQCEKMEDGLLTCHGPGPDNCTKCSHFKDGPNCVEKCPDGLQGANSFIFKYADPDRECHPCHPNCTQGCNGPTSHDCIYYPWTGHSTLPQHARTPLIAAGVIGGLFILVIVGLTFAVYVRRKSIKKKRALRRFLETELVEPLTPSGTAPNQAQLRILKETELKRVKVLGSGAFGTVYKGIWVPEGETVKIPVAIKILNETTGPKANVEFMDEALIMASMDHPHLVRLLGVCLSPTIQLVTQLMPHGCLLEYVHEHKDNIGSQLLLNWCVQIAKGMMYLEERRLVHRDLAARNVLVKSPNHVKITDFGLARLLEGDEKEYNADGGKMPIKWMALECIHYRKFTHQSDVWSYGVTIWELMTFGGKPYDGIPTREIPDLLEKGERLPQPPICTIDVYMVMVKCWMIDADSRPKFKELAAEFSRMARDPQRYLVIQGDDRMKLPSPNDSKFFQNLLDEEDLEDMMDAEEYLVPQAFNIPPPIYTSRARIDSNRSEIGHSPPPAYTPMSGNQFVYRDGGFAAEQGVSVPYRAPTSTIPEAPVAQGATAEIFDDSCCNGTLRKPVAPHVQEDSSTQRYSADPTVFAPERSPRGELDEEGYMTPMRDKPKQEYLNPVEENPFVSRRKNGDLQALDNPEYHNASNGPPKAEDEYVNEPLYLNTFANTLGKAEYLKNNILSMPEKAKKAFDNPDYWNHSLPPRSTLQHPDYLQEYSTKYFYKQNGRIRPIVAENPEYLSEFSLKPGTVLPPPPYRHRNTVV

[3] = molecular target: T2, human recombinant Casein kinase 18 (CK1δ) (Homo sapiens, UniProt P48730); test: Kinase inhibition assay (HotSpot, Reaction Biology Corp), CK1δ; type: biochemical; details: 10 μM ATP, 10-dose IC50 mode
T2 construct: purchased Reaction Biology Corp
T2 sequence (P48730 whole entry): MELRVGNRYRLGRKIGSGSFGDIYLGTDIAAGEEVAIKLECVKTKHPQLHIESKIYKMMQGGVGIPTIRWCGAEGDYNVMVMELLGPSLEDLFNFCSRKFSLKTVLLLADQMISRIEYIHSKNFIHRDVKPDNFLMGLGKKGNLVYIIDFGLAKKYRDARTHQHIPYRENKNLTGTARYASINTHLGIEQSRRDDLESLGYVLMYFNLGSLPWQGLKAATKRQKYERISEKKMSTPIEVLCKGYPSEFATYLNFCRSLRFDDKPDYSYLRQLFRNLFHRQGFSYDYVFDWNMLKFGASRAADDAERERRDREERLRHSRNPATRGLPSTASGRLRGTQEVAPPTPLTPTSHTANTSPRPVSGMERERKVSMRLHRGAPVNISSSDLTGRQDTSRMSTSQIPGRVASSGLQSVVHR

MINK/MINK1 = molecular target: T3, MINK/MINK1 (Homo sapiens, UniProt Q8N4C8); test: Kinase inhibition assay (HotSpot), MINK/MINK1; type: biochemical; details: 10 μM ATP, 10-dose IC50 mode; read-out: Compound IC50 (M) MINK/MINK1
T3 construct: purchased Reaction Biology Corp
T3 sequence (Q8N4C8 whole entry): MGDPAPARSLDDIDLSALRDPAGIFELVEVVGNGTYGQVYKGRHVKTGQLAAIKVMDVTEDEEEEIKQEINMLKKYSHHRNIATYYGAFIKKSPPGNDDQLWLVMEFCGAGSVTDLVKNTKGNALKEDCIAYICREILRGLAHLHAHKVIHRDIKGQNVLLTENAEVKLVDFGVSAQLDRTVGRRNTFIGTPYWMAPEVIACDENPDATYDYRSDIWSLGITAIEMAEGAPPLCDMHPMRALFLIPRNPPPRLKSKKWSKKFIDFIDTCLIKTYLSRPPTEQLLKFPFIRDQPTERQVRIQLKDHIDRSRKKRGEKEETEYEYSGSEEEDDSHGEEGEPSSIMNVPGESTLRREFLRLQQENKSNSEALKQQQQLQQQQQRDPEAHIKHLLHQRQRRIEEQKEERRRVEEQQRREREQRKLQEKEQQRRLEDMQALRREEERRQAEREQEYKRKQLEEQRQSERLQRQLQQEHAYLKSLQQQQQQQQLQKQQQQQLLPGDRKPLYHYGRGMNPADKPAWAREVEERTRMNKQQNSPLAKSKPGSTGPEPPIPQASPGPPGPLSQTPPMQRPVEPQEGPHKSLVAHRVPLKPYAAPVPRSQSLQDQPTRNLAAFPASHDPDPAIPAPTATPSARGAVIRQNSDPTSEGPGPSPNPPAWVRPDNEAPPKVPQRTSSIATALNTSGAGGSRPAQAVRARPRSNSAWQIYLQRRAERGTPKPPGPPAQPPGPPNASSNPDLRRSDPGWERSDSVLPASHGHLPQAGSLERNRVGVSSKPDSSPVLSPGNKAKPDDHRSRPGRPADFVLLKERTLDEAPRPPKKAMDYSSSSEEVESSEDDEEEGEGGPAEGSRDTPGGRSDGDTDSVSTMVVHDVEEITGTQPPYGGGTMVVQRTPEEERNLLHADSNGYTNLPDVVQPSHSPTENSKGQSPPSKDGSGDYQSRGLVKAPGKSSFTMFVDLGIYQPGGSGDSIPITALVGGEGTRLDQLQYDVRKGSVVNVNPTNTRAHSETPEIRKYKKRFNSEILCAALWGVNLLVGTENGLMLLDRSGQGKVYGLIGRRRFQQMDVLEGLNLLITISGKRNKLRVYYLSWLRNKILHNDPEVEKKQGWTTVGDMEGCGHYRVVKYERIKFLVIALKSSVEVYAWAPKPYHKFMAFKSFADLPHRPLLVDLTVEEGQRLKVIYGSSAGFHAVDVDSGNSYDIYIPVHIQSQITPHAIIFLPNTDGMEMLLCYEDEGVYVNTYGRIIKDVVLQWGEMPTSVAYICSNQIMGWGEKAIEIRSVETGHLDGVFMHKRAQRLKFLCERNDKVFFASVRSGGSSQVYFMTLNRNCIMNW

[4] = In vitro metabolic stability, human liver microsomes; type: in vitro ADME
Experimental: Human Microsomal Stability of Compounds of the Invention
In Vitro Metabolic Stability
Incubation: The metabolic stability assay was performed by incubating each test compound in human liver microsomes at 37° C. and a protein concentration of 0.4 mg/mL. The metabolic reaction was initiated by the addition of an NADPH-regenerating system and quenched at various time points over a 60 minute incubation period by the addition of acetonitrile containing diazepam as internal standard. Control samples (containing no NADPH) were included (and quenched at 2, 30 and 60 minutes) to monitor for potential degradation in the absence of cofactor. The human liver microsomes used in this experiment were supplied by XenoTech, lot #1410230. Microsomal incubations were performed at a substrate concentration of 1 μM. Data analysis: Species scaling factors from Ring et al. (2011) JPharmSci, 100:4090-4110 were used to convert the in vitro CLint (μL/min/mg) to an in vivo CLint(mL/min/kg). Hepatic blood clearance and the corresponding hepatic extraction ratio (EH) were calculated using the well stirred model of hepatic extraction in each species, according to the “in vitro T1/2” approach described in Obach (1999) DrugMetab. Dispos. 27:1350-1359. The EH was then used to classify compounds as low(<0.3), intermediate (0.3-0.7), high (0.7-0.95) or very high (>0.95) extraction compounds. Predicted in vivo clearance values have not been corrected for microsomal or plasma protein binding. Species scaling calculations are based on two assumptions: 1) NADPH-dependent oxidative metabolism predominates over other metabolic routes (i.e. direct conjugative metabolism, reduction, hydrolysis, etc.), and; 2) rates of metabolism and enzyme activities in vitro are truly reflective of those that exist in vivo. If significant non-NADPH-mediated degradation is observed in microsome control samples, then assumption (1) is invalid and predicted clearance parameters are therefore not reported.

IC50 (ERBB4/HER4): 9.52e-06 M
IC50 ([3]; read-out: Compound IC50 (M) CK1δ): 6.38e-10 M
IC50 ([3]; casein kinase 1δ, read-out: pIC50 (converted)): 6.46e-10 M
IC50 (MINK/MINK1): 1.99e-07 M
Predicted EH (hepatic extraction ratio) ([4]; human liver microsomes): 0.22
microsomal CLint at 1 μM ([4]; human liver microsomes, 1 μM): 7 µL/min/mg
half-life at 1 μM ([4]; human liver microsomes, 1 μM, 0.4 mg/mL protein, 37° C.): 4.03 h
Predicted CLblood ([4]; scaled from human liver microsomes, well stirred model): 5 mL/min/kg
CLint scaled at 1 μM ([4]; scaled from human liver microsomes, read-out: Predicted CLint, in vivo): 6 mL/min/kg
SMILES: CCn1cnc(-c2ccc(F)cc2)c1-c1ccnc(NCCO)n1 [ZH3-126, 2-((4-(1-Ethyl-4-(4-fluorophenyl)-1H-imidazol-5-yl)pyrimidin-2-yl)amino)ethan-1-ol]
supernatant concentrations of inflammatory biomarkers (IL-6, IL-8, GM-CSF) [1]: ability to reduce supernatant concentrations of other inflammatory biomarkers
IC50 [2]: 1860 nM
